Source: patent US20250197363A1, “THIADIAZOLE COMPOUND, AND PHARMACEUTICAL COMPOSITION FOR PREVENTING OR TREATING INFLAMMATORY DISEASES, INCLUDING SAME” (Cureverse Incorporated, priority 2022, published 2025)

What was measured:
[1] = molecular target: PPARδ ligand-binding domain (LBD) (Homo sapiens (Human), UniProt Q03181); assay: PPARδ activation, TR-FRET coactivator peptide recruitment (enzyme activity EC50); assay type: biochemical; details: GST-PPARδ LBD 5 nM, read-out: Enzymatic activity (EC50)
PPARδ ligand-binding domain (LBD), sequence (Q03181 211-439): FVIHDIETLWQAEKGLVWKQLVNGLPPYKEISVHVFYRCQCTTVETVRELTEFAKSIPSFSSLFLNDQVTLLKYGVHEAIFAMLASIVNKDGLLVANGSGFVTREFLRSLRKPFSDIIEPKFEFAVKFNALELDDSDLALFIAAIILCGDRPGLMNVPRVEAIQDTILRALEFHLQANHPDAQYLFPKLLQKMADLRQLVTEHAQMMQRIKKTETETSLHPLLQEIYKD

[2] = system: NF-κB; assay: NF-κb promoter-luciferase assay; assay type: cell-based; details: LPS-treated Raw264.7/NF-κb-luciferase cells; 12 μM, 25 μM, 50 μM
Protocol: Raw264.7/NF-kb-luc cells were treated with 1 mg/mL LPS and various concentrations of compounds using the same method as used for measuring NO. 16 hours later, after adding the D-luciferin solution to the cells, luminescence images were obtained using the IVIS Lumina III. Quantification of the luminescence images was performed using Living Imaging software.
Nuclear factor-kappa B (NF-κB), which plays an important role in inflammatory responses, is a transcription factor that regulates the synthesis of various cytokines, chemokines, and growth factors. NFκB is composed of p50 and p65, enters the nucleus, acts as a transcription factor, and synthesizes iNOS, COX-2, and inflammation-related cytokines, and generally binds to the inhibitor NF-κBα (IκBα) in the cytoplasm, thereby inhibiting the action of NF-κB. In order to confirm whether NF-κb-related cell signaling induced in Raw264.7 cells was affected by the compound of Example 1, NF-κb promoter-luciferase analysis and pIKKαβ expression change analysis were performed in Raw264.7 cells using 1 mg/mL LPS and the compound of Example 1 at concentrations of 0, 12 μM, 25 μM, and 50 μM.

[3] = system: IL-6; assay: IL-6 secretion, cytometric bead array; assay type: cell-based; details: LPS-stimulated Raw264.7, 24 hours; 12 μM, 25 μM, 50 μM
Excerpt: (§1) The supernatant was dispensed using the same method as used for measuring NO. High amounts of TNF-α and IL-6 in the supernatant were quantified using the multiplex bead-based immunoassay (BD™ Cytometric Bead Array) system and flow cytometry (BD Biosciences).
(§2) LPS, well known as an endotoxin present in the outer cell membrane of Gram-negative bacteria, stimulates macrophages or monocytes to promote the secretion of inflammatory cytokines such as tumor necrosis factor-α (TNF-α), interleukin-1l (IL-1), and interleukin-6 (IL-6). Accordingly, in order to analyze the effect of the compound of Example 1 on inhibiting cytokine secretion, RAW264.7 cells were cultured for 24 hours by adding 1 mg/mL of LPS and the compound of Example 1 at concentrations of 0, 12 μM, 25 μM, and 50 μM, and the concentrations of IL-6 and TNFα in the culture supernatant were measured.

[4] = system: TNF-α; assay: TNF-α secretion, cytometric bead array; assay type: cell-based; details: LPS-stimulated Raw264.7, 24 hours; 12 μM, 25 μM, 50 μM
Excerpt: as §1, §2

[5] = system: LPS-stimulated Raw264.7 cells; assay: Nitric oxide (NO) production, Griess reagent; assay type: cell-based; details: LPS-stimulated Raw264.7, 24 hours
Protocol: The concentration of NO was measured using the nitrite concentration in the culture medium with the Griess reagent system (Promega). Raw264.7 cells were adjusted to 2.5×10^5 cells/mL using DMEM medium, inoculated into 24-well plates, and pre-cultured for 20 hours in a 5% CO2 incubator. The cells were treated with […] of LPS and various concentrations of the example compounds and recultured for 24 hours. After obtaining the supernatant of the culture medium, the NO concentration was measured using the Griess reagent system according to the protocol provided by the manufacturer. The absorbance was measured at 540 nm using a microplate reader [BMG Labtech (located in Offenburg, Germany)]. The concentration of NO in the cell culture medium was calculated by comparing it with a standard curve for each concentration of sodium nitrite (NaNO2).
1 mg/mL lipopolysaccharide (LPS) and the compounds of Example 1 at concentrations of 0, 12 μM, 25 μM, and 50 μM were added to Raw264.7 cells, cultured for 24 hours, and changes in NO concentration in the upper layer of the culture were analyzed.

[6] = molecular target: iNOS (Mus musculus (Mouse), UniProt P29477); assay: iNOS protein expression, Western blot; assay type: cell-based; details: LPS-stimulated Raw264.7; 12 μM, 25 μM, 50 μM
Protocol: (§3) The cells were washed twice with cold PBS and lysed with RIPA buffer (Roche) containing a complete protease inhibitor cocktail. Protein concentration was quantified using the BCA protein assay kit (Pierce, IL, USA), and 30 μL of lysate was separated by 10% SDS-PAGE. The separated proteins were transferred to a polyvinylidene difluoride (PVDF) membrane (Biorad, CA, USA) at 70 mA for 1 hour and 30 minutes, then blocked with tris-buffered saline (TBST; pH 7.5) containing 50 mg/mL skim milk at room temperature for 2 hours. As antibodies to examine the expression levels of iNOS and pIKKαβ, anti-iNOS and pIKKαβ were used, diluted 1:1000 and reacted at room temperature for 2 hours, followed by washing three times with TBST. As secondary antibodies, horseradish peroxidase (HRP)-conjugated anti-mouse IgG and anti-rabbit IgG were diluted 1:2000 and reacted at room temperature for 1 hour, followed by washing three times with TBST. Peroxidase activity was detected using ECL-Plus according to the manufacturer's protocol.

[7] = molecular target: pIKKαβ (Mus musculus (Mouse), UniProt O88351+Q60680); assay: pIKKαβ protein expression, Western blot; assay type: cell-based; details: LPS-stimulated Raw264.7; 12 μM, 25 μM, 50 μM
Protocol: as §3
Nuclear factor-kappa B (NF-κB), which plays an important role in inflammatory responses, is a transcription factor that regulates the synthesis of various cytokines, chemokines, and growth factors. […]

[8] = system: macrophage infiltration into carrageenan-injected sole; assay: Macrophage tracking by fluorescence imaging in carrageenan-induced acute inflammation; assay type: in vivo, mouse; details: C57BL/6 mice, 50 mg/kg oral, 6 hours after inducing inflammation, versus vehicle group
Protocol: 2 mL of thioglycollate medium (BD, USA) was injected into the abdominal cavity of a C57Bl/6 mouse, and three days later, the mouse was cervically dislocated, and 8 mL of Dulbecco's modified Eagle's medium (DMEM) was injected into the abdominal cavity to collect cells. After centrifugation, the cells were suspended in DMEM containing 10% fetal bovine serum (FBS) and 1% penicillin-streptomycin and cultured in a 5% CO2 incubator at 37° C. for 2 hours. Non-adherent cells were removed, and the remaining cells were used for experiments.
The acute anti-inflammatory activity of the example compound was evaluated using a macrophage tracking technique with fluorescence imaging. Macrophages extracted from the mouse abdominal cavity were labeled with Vybrant™ DiD Cell-Labeling Solution and then administered to the mouse via intravenous injection. The next day, 50 mg/kg of the example compound was orally administered, and 1 hour later, a 0.1% Carrageenan (CG) solution or PBS was subcutaneously injected into the right or left sole of the mouse. Fluorescent images were obtained using IVIS Lumina III at the designated time.
The inflammation model induced by λ-carrageenan in the mouse foot region is an acute arthritis model and is useful when checking the effect of suppressing edema due to osteoarthritis. […]

[9] = system: RAW 264.7 cells; assay: Cytotoxicity, CCK-8 assay; assay type: cell-based; details: Raw264.7 cells; 12 μM, 25 μM, 50 μM
Protocol: To evaluate the cytotoxicity of the sample, cell proliferation was tested using a cell counting kit [CCK-8; Dojindo Laboratories (Tokyo, Japan)]. RAW 264.7 cell 1×10^4 cells/mL were dispensed into a well plate, and after pre-culturing for 20 hours, […] of LPS and example compounds were added at different concentrations and cultured for 24 hours in an incubator at 37° C. and 5% CO2. After culturing, 10 μl CCK-8 reagent was added and recultured for 1 to 2 hours, and the absorbance was measured. The absorbance was measured at 450 nm using a microplate reader [BMG Labtech (located in Offenburg, Germany)].
In order to evaluate the cytotoxicity of the compound of Example 1, Raw264.7 cells, a macrophage cell line, were treated with the compound of Example 1 at concentrations of 0, 12 μM, 25 μM, and 50 μM, respectively, and then CCK8 assay was performed according to <Experiment Method> 3 above. […] Specifically, cell proliferation was similar to that of the vehicle group even at a concentration of up to 50 μM, and no significance was detected.

SMILES	EC50 [1] [nM]	other results
Cc1cc(SCc2nnc(-c3ccc(C(F)(F)F)cc3)s2)ccc1OCC(=O)NC#N [Example 8, N-cyano-2-(2-methyl-4-(((5-(4-(trifluoromethyl)phenyl)-1,3,4-thiadiazol-2-yl)methyl)thio)phenoxy)acetamide]	504	
Cc1ccc(-c2nnc(CSc3ccc(OC(C)C(=O)O)c(C)c3)s2)cc1 (stereo not shown) [Example 23, 2-(2-methyl-4-(((5-(p-tolyl)-1,3,4-thiadiazol-2-yl)methyl)thio)phenoxy)propanoic acid]	5700	
Cc1cc(SCc2nnc(-c3ccc(OC(F)(F)F)cc3)s2)ccc1OCC(=O)O [Example 25, 2-(2-methyl-4-(((5-(4-(trifluoromethoxy)phenyl)-1,3,4-thiadiazol-2-yl)methyl)thio)phenoxy)acetic acid]	42	
Cc1cc(SCc2nnc(-c3ccc(F)c(F)c3)s2)ccc1OC(C)C(=O)O (stereo not shown) [Example 13, 2-(4-(((5-(3,4-difluorophenyl)-1,3,4-thiadiazol-2-yl)methyl)thio)-2-methylphenoxy)propanoic acid]	6160	
Cc1cc(SCc2nnc(-c3ccc(F)c(Cl)c3)s2)ccc1OCC(=O)O [Example 16, 2-(4-(((5-(3-chloro-4-fluorophenyl)-1,3,4-thiadiazol-2-yl)methyl)thio)-2-methylphenoxy)acetic acid]	1350	
Cc1cc(SCc2nnc(-c3ccc(OC(F)(F)F)cc3)s2)ccc1OC(C)(C)C(=O)O [Example 27, 2-methyl-2-(2-methyl-4-(((5-(4-(trifluoromethoxy)phenyl)-1,3,4-thiadiazol-2-yl)methyl)thio)phenoxy)propanoic acid]	595	
Cc1ccc(-c2nnc(CSc3ccc(OC(C)(C)C(=O)O)c(C)c3)s2)cc1 [Example 24, 2-methyl-2-(2-methyl-4-(((5-(p-tolyl)-1,3,4-thiadiazol-2-yl)methyl)thio)phenoxy)propanoic acid]	1250	
Cc1cc(SCc2nnc(-c3cc(F)c(F)c(F)c3)s2)ccc1OCC(=O)O [Example 15, 2-(2-methyl-4-(((5-(3,4,5-trifluorophenyl)-1,3,4-thiadiazol-2-yl)methyl)thio)phenoxy)acetic acid]	4010	
Cc1cc(SCc2nnc(-c3ccc(C(F)(F)F)cc3)s2)ccc1OCC(=O)O [Example 1, 2-(2-methyl-4-(((5-(4-(trifluoromethyl)phenyl)-1,3,4-thiadiazol-2-yl)methyl)thio)phenoxy)acetic acid]	39.9	NF-κb-luciferase luminescent signals [2]: decreased in a concentration-dependent manner; production of IL-6 [3]: effectively inhibited; production of TNFα [4]: effectively inhibited; NO concentration produced ([5]; compound 12.5 μM (0 μM control 22.8±1.3 μM)): 18.9 ± 0.3 µM; NO concentration produced ([5]; compound 25 μM (0 μM control 22.8±1.3 μM)): 14.8 ± 0.54 µM; NO concentration produced ([5]; compound 50 μM (0 μM control 22.8±1.3 μM)): 2.41 ± 0.24 µM; iNOS protein expression [6]: significantly suppressed; pIKKαβ protein expression [7]: effectively reduced; fluorescent signal of labeled macrophages in sole injected with 0.1% CG [8]: lower fluorescent signal; cytotoxicity (CCK8 assay, cell proliferation) [9]: no cytotoxicity at all concentrations
Cc1cc(SCc2nnc(-c3ccc(C(F)(F)F)c(F)c3)s2)ccc1OC(C)(C)C(=O)O [Example 21, 2-(4-(((5-(3-fluoro-4-(trifluoromethyl)phenyl)-1,3,4-thiadiazol-2-yl)methyl)thio)-2-methylphenoxy)-2-methylpropanoic acid]	2660	
Cc1cc(SCc2nnc(-c3ccc(C(F)(F)F)cc3)s2)ccc1OC(C)(C)C(=O)O [Example 3, 2-methyl-2-(2-methyl-4-(((5-(4-(trifluoromethyl)phenyl)-1,3,4-thiadiazol-2-yl)methyl)thio)phenoxy)propanoic acid]	374	
Cc1cc(SCc2nnc(-c3ccc(F)c(F)c3)s2)ccc1OCC(=O)O [Example 12, 2-(4-(((5-(3,4-difluorophenyl)-1,3,4-thiadiazol-2-yl)methyl)thio)-2-methylphenoxy)acetic acid]	663	
Cc1cc(SCc2nnc(-c3ccc(C(F)(F)F)cc3)s2)ccc1OC(C)C(=O)O (stereo not shown) [Example 2, 2-(2-methyl-4-(((5-(4-(trifluoromethyl)phenyl)-1,3,4-thiadiazol-2-yl)methyl)thio)phenoxy)propanoic acid]	420	
Cc1cc(SCc2nnc(-c3ccc(OC(F)(F)F)cc3)s2)ccc1OC(C)C(=O)O (stereo not shown) [Example 26, 2-(2-methyl-4-(((5-(4-(trifluoromethoxy)phenyl)-1,3,4-thiadiazol-2-yl)methyl)thio)phenoxy)propanoic acid]	1240	
Cc1cc(SCc2nnc(-c3ccc(F)cc3)s2)ccc1OCC(=O)O [Example 9, 2-(4-(((5-(4-fluorophenyl)-1,3,4-thiadiazol-2-yl)methyl)thio)-2-methylphenoxy)acetic acid]	2440	
